Each structure is given as a SMILES string.

Type in all cases: cell-based
Assay [1] concerns Ring constructs made with a Caco2 outer ring and a SW480 core. The assay can be described thus: Concentric ring construct drug treatment (MTS assay, LIVE/DEAD staining). From the text:
The first objective of this project was to evaluate a 3D model of a colorectal cancer tumor surrounded by normal host tissue. The engineered concentric ring construct consists of a colorectal tumor core and a colon epithelial outer ring, to model a tumor in a reductionist, yet physiologically relevant environment. This construct was used to measure the growth of the tumor core, any observed invasion of the tumor cells into the epithelial layer, and the efficacy of drugs. The constructs were created with cells suspended in a hyaluronic acid and gelatin-based hydrogel. The tumor cores were made using one of four colorectal cancer cells types, thereby providing models of 4 levels of malignancy. The HCT116 cells were the most malignant, followed by the HT29, SW480, and Caco2 cells. Caco2 cells were also employed in the outer ring, as they best resemble healthy epithelial cells. The tumor core was fluorescently labeled and fluorescent imaging was used to monitor the tumor core over the course of 7-14 days. […] Ring constructs made with a Caco2 outer ring and a SW480 core were also treated with Regorafenib, a chemotherapy agent.
In general terms: Formazan colour is commonly taken as a measure of viable cells.

Assay [2] relates to HT29 cells. The assay can be described thus: cells. To be noted: Homo sapiens, HT-29, read-out: relative cellular viability (MTS, relative to control). As for the experimental part:
(§1) Cancer cells seeded directly into wells were given 4-5 hours to reattach to the bottom of the wells. After that time, the anticancer drug solutions were administered in place of the media (FIG. 6, panel A) and an MTS assay was carried out 2 days later to determine cell viability. […] At 100 μM concentrations of Regorafenib and Sorafenib, and 100 mM concentrations of 5-FU, cellular viability remained below 20% that of the control for all four of the colorectal cancer cell lines utilized. However, screening with Dabrafenib and Trametinib produced diverging results from the other three anticancer drugs at higher concentrations. […] When treated with 1 mM concentrations of 5-FU, relative cellular viability was approximately 39% for SW480 cells and remained between 10%-22% for the HCT116, HT29, and CACO2 cells. These values were considerably lower than the relative cellular viability values for the lowest concentrations of the other anticancer drugs.
(§2) Cell Seeding: The original 15 mL centrifuge tubes containing the 10 mL of DMEM-10, cells, and trypsin were placed into a centrifuge. The centrifugation setting was 1500 RPM and at maximal acceleration for 5 minutes. After that time, the media and trypsin mixture was aspirated from the tubes, leaving the cell pellets still intact. 5 mL of DMEM-10 was then pipetted into each of the tubes, resuspending the cells in the process. Calculated volumes of the 5 mL cell-media solution were determined to ensure that 25,000 cells of each of the four colorectal cancer cell lines were seeded directly into each of the wells of a polystyrene clear-bottom 96-well plate. 100 μL of DMEM-10 media was then pipetted directly into the wells. The 96-well plates were incubated at 37° C. and 5% CO2 for 5 hours to allow the cells to reattach themselves to the bottom of the wells until media was aspirated and anticancer drug solutions were added.
(§3) Addition of Anticancer Drugs for Screening: The anticolorectal cancer drugs used in this screening included 5-FU, Regorafenib, Sorafenib, Trametinib, and Dabrafenib (Sigma-Aldrich, Missouri, USA)). High concentration drug stock solutions were created with DMSO. Lower concentration drug solutions were created by mixing the anticancer drug stocks with DMEM-10 media. […] drug solutions were generated for 5-FU; 1 μM, 10 μM, and 100 μM drug solutions were generated for Regorafenib, Sorafenib, and Dabrafenib; and 1 nM, 10 nM, and 100 nM drug solutions were generated for Trametinib. Media was carefully aspirated from the wells and 200 μL of the various drug-media solutions were placed into the wells containing cells. Three duplicates were generated for each anticancer drug concentration with each of the different cell types to calculate averages and run statistics on the data generated. Well plates were then incubated at 37° C. and 5% CO2 for […].
(§4) Cell viability assay: Cell viability was determined 48 hours after exposure to the anticancer drug solutions. The viability of the cells was examined by the CellTiter 96® AQueous One Solution Cell Proliferation (MTS) assay (Promega, Wisconsin, USA). The anticancer drug-media solutions were aspirated from the wells and 200 μL of the MTS reagent was carefully pipetted into the wells. The incubation time for the cells with the MTS reagent was approximately 45 minutes. The cell viability assay was performed on another 96-well plate and the absorbance was quantified by the EnVision Multilabel Plate Reader (PerkinElmer, California, USA).

The subject of assay [3] is CACO2 cells. The assay can be described thus: cells. To be noted: Homo sapiens, Caco-2, read-out: relative cellular viability (MTS, relative to control). How it is done:
as §1, §2, §3, §4

What is called viability is the share of living cells, or the viability signal relative to a control. For the compound `CNC(=O)c1cc(Oc2ccc(NC(=O)Nc3ccc(Cl)c(C(F)(F)F)c3)c(F)c2)ccn1` [Regorafenib], the “cells targeted within the ring construct (LIVE/DEAD staining)” value in assay [1] (inner ring versus outer Caco2 cells) is listed as “selectively targeted the inner ring of the construct”. Also, the “amount of viable cells after treatment (MTS assay)” value in assay [1] (ring construct, Caco2 outer ring, SW480 core) is reported as “decrease in the amount of viable cells”. The viability at 100 µM in assay [2] and in assay [3] was less than 20% each time.
